Assay results taken from US8343536B2, “Biofilm-inhibiting medical products” (Cook Biotech Incorporated, priority 2007, dated 2013).

Legend:
Type in all cases: cell-based
E. coli (ATCC #25922) [1] = experiment: Zone-of-inhibition, ranked, bismuth thiol coated SIS discs (Example 1); settings: 24 hours
Procedure: (§1) Seven bismuth thiol compounds (50 mg each) were obtained from Microbion, Inc. (Bozeman, Mont.). These compounds included 2 preparations of bismuth-1,2-ethanedithiol (BisEDT) (Molar ratio 1:1.5), 2 preparations of bismuth-2,3-dimercaptopropanol (BisBAL) (1:1 and 1:1.5), bismuth dithioethylhritol (BisERY) (1:1.5), bismuth-3,4-dimercatotoluene (BisTOL) (1:1.5) and bismuth butanedithiol (BisBDT) (1:1.5). Purified small intestinal submucosa (SIS) (Cook Biotech Incorporated, West Lafayette, Ind.) was made into wetted 4-layer constructs which were laminated together by lyophilization and subsequently cut into 15 mm discs (˜1.76 cm^2) using a disc punch. Bismuth thiols were resuspended in dimethyl sulfoxide (DMSO) and diluted to appropriate concentrations for coating. Discs were coated with the bismuth thiol solutions at three final concentrations using 17.6 μl of the appropriate solution per disc for a final concentration of 1, 10, or 100 μg/cm^2. The discs were subsequently placed in a lyophilizer overnight to remove the DMSO solvent. Control discs were prepared using 17.6 μl of DMSO without a bismuth thiol preparation. 3 bacteria were used for this experiment: S. aureus (ATCC #25983), P. aeruginosa (ATCC #27853), and E. coli (ATCC #25922). Bacteria was grown in Tryptic Soy Broth for 16-24 hours before placing a lawn on Tryptic Soy Agar in 100 mm Petri dishes.
(§2) Sixty six samples were tested in total (7 bismuth thiol preparations 3 doses=21+1 control=22×3 bacteria=66). A lawn of one of the three bacteria investigated was swabbed onto the Tryptic Soy Agar. The bismuth thiol coated disc was placed approximately in the center of the plate and rehydrated with ˜50 μl of sterile saline. Plates were incubated inverted for 24 hours at which time pictures were taken with a digital camera. Zones-of-inhibition were categorized by the approximate distance of bacterial growth inhibition from the disc edge. The effectiveness was ranked as follows: (−) for no growth retardation, (+) for growth retardation at <1 mm from disc edge, (++) for growth retardation 1-3 mm from disc edge, and (+++) for growth retardation greater than 3 mm from disc edge. Results are shown below in Tables 2-4.

S. aureus (ATCC #25983) [2] = experiment: as above; settings: 24 hours
Procedure: as §1, §2

[3] = test system: P. aeruginosa (ATCC #27853); experiment: as above; settings: 24 hours
Procedure: as §1, §2

E. coli (ATCC #25922) [4] = experiment: Zone-of-inhibition measured by image analysis, coated SIS discs (Example 2); settings: 10 μg/cm^2 on SIS disc, 24 hours, n=3
Procedure: (§3) BisEDT (Molar ratio 1:1.5), BisBAL (1:1.5), and BisERY (1:1.5) (50 mg each) were obtained from Microbion, Inc. Small intestinal submucosa (SIS) was obtained and processed into 4-layer lyophilized sheets as described in Example 1. The sheets were subsequently cut into 15 mm discs (˜1.76 cm^2) using a disc punch. Bismuth thiols were resuspended in dimethyl sulfoxide (DMSO) and diluted to 0.35 μg/μl for coating. Discs were coated with the bismuth thiol solutions 50 μl of the appropriate solution per disc for a final concentration 10 μg/cm^2 (0.35 μg/μl*50 μl=17.5 μg/1.76 cm^2=10 μg/cm^2). The discs were subsequently placed in a lyophilizer overnight to remove the DMSO solvent. Control discs were prepared using 50 μl of DMSO without a bismuth thiol preparation. 3 bacteria were used for this experiment: S. aureus (ATCC #25983), P. aeruginosa (ATCC #27853), and E. coli (ATCC #25922). Bacteria was grown in Tryptic Soy Broth for 16-24 hours before placing a lawn on Tryptic Soy Agar in 100 mm Petri dishes.
(§4) Thirty samples were tested in total (3 bismuth thiol preparations @ n=3→9+1 control=10×3 bacteria=30). A lawn of one of the three bacteria investigated was swabbed onto the Tryptic Soy Agar. The bismuth thiol coated disc was rehydrated for ˜5 minutes in sterile saline and placed approximately in the center of the plate. Plates were incubated inverted for 24 hours at which time pictures were taken with a digital camera. Zones-of-inhibition were measured using image analysis software (Spot RT) by determining the distance of bacterial growth inhibition from the disc edge.

S. aureus (ATCC #25983) [5] = experiment: as above; settings: 10 μg/cm^2 on SIS disc, 24 hours, n=3
Procedure: as §3, §4

[6] = test system: P. aeruginosa (ATCC #27853); experiment: as above; settings: 10 μg/cm^2 on SIS disc, 24 hours, n=3
Procedure: as §3, §4

S. aureus (ATCC #25983) [7] = experiment: Zone-of-inhibition after various rehydration times of coated SIS discs (Example 3)
Procedure: BisEDT (Molar ratio 1:1.5) and BisBAL (1:1.5) (50 mg each) were obtained from Microbion, Inc. Small intestinal submucosa (SIS) was obtained and processed into 4-layer lyophilized sheets as described in Example 1. The sheets were subsequently cut into 15 mm discs (˜1.76 cm^2) using a disc punch. Bismuth thiols were resuspended in dimethyl sulfoxide (DMSO) and diluted to appropriate concentrations for coating. Discs were coated with the bismuth thiol solutions at a final concentration of 0.35 μg/μl using 50 μl of the solution per disc for a final concentration of 10 μg/cm^2. The discs were subsequently placed in a lyophilizer overnight to remove the DMSO solvent. S. aureus (ATCC #25983) was used as the bacteria for this experiment. Bacteria was grown in Tryptic Soy Broth for 16-24 hours before placing a lawn on Tryptic Soy Agar in 100 mm Petri dishes.
Thirty six samples were tested in total (2 BT*n=3→6*6 rehydration times→36). A lawn of S. aureus was swabbed onto the Tryptic Soy Agar. For the 0 rehydration time point, the bismuth thiol coated disc was placed approximately in the center of the plate and rehydrated with ˜50 μl of sterile saline. Other rehydration times were varied at 5, 10, 20, 30, or 60 minutes. For this, the samples were placed in sterile saline and a timer set for each time. At the appropriate time, samples were removed from the saline and placed approximately in the center of the plate. Plates were incubated inverted for 24 hours at which time pictures were taken with a digital camera. Zones-of-inhibition were compared visually between groups.

| Molecule | Zone-of-inhibition rank (E. coli) (E. coli (ATCC #25922) [1]; 1 μg/cm^2 on SIS disc) | Zone-of-inhibition rank (E. coli) (E. coli (ATCC #25922) [1]; 10 μg/cm^2 on SIS disc) | Zone-of-inhibition rank (E. coli) (E. coli (ATCC #25922) [1]; 100 μg/cm^2 on SIS disc) | Zone-of-inhibition rank (S. aureus) (S. aureus (ATCC #25983) [2]; 1 μg/cm^2 on SIS disc) | Zone-of-inhibition rank (S. aureus) (S. aureus (ATCC #25983) [2]; 10 μg/cm^2 on SIS disc) | Zone-of-inhibition rank (P. aeruginosa) ([3]; 1 μg/cm^2 on SIS disc) | Zone-of-inhibition rank (P. aeruginosa) ([3]; 10 μg/cm^2 on SIS disc) | Zone-of-inhibition rank (P. aeruginosa) ([3]; 100 μg/cm^2 on SIS disc) | Zone-of-inhibition rank (S. aureus) (S. aureus (ATCC #25983) [2]; 100 μg/cm^2 on SIS disc) | Zone-of-inhibition, distance of bacterial growth inhibition from the disc edge (E. coli (ATCC #25922) [4]) | Zone-of-inhibition, distance of bacterial growth inhibition from the disc edge (S. aureus (ATCC #25983) [5]) | Zone-of-inhibition, distance of bacterial growth inhibition from the disc edge [6] | Effect of rehydration time on zone-of-inhibition, visual comparison (S. aureus (ATCC #25983) [7]; 10 μg/cm^2, rehydration 0-60 minutes in sterile saline) | Zone-of-inhibition, visual (S. aureus (ATCC #25983) [7]; 10 μg/cm^2 on SIS disc, rehydration 0, 5, 10, 20, 30 or 60 minutes) |
| --- | --- | --- | --- | --- | --- | --- | --- | --- | --- | --- | --- | --- | --- | --- |
| OCC(S)CS.[Bi] (stereo not shown) [Bis BAL2, bismuth-2,3-dimercaptopropanol] | − | ++ ((++) for growth retardation 1-3 mm from disc edge) | +++ ((+++) for growth retardation greater than 3 mm from disc edge) | + ((+) for growth retardation at <1 mm from disc edge) | +++ ((+++) for growth retardation greater than 3 mm from disc edge) | − | + ((+) for growth retardation at <1 mm from disc edge) | +++ ((+++) for growth retardation greater than 3 mm from disc edge) |  |  |  |  |  |  |
| OCC(S)CS.[Bi] (stereo not shown) [Bis BAL1, bismuth-2,3-dimercaptopropanol] | − | ++ ((++) for growth retardation 1-3 mm from disc edge) | +++ ((+++) for growth retardation greater than 3 mm from disc edge) | + ((+) for growth retardation at <1 mm from disc edge) | +++ ((+++) for growth retardation greater than 3 mm from disc edge) | − | + ((+) for growth retardation at <1 mm from disc edge) | +++ ((+++) for growth retardation greater than 3 mm from disc edge) | +++ ((+++) for growth retardation greater than 3 mm from disc edge) |  |  |  |  |  |
| bismuth-3,4-dimercatotoluene [Bis TOL] | − | − | − | − | + ((+) for growth retardation at <1 mm from disc edge) | − | − | − | + ((+) for growth retardation at <1 mm from disc edge) |  |  |  |  |  |
| bismuth butanedithiol [Bis BDT] | − | ++ ((++) for growth retardation 1-3 mm from disc edge) | ++ ((++) for growth retardation 1-3 mm from disc edge) | − | ++ ((++) for growth retardation 1-3 mm from disc edge) | − | + ((+) for growth retardation at <1 mm from disc edge) | ++ ((++) for growth retardation 1-3 mm from disc edge) | +++ ((+++) for growth retardation greater than 3 mm from disc edge) |  |  |  |  |  |
| OCC(S)CS.[Bi] (stereo not shown) [BisBAL, bismuth-2,3-dimercaptopropanol] |  |  |  |  |  |  |  |  |  | 1.50 | 7.27 | 0.16 | no visual differences between the rehydration time points | significant effectiveness in creating a zone-of-inhibition |
| bismuth dithioethylhritol [Bis ERY] | − | ++ ((++) for growth retardation 1-3 mm from disc edge) | +++ ((+++) for growth retardation greater than 3 mm from disc edge) | − | ++ ((++) for growth retardation 1-3 mm from disc edge) | − | ++ ((++) for growth retardation 1-3 mm from disc edge) | +++ ((+++) for growth retardation greater than 3 mm from disc edge) | +++ ((+++) for growth retardation greater than 3 mm from disc edge) |  |  |  |  |  |
| bismuth-1,2-ethanedithiol [Bis EDT1] | − | − | + ((+) for growth retardation at <1 mm from disc edge) | + ((+) for growth retardation at <1 mm from disc edge) | ++ ((++) for growth retardation 1-3 mm from disc edge) | − | + ((+) for growth retardation at <1 mm from disc edge) | + ((+) for growth retardation at <1 mm from disc edge) | +++ ((+++) for growth retardation greater than 3 mm from disc edge) |  |  |  |  |  |
| bismuth-1,2-ethanedithiol [Bis EDT2] | − | + ((+) for growth retardation at <1 mm from disc edge) | + ((+) for growth retardation at <1 mm from disc edge) | ++ ((++) for growth retardation 1-3 mm from disc edge) | ++ ((++) for growth retardation 1-3 mm from disc edge) | − | − | ++ ((++) for growth retardation 1-3 mm from disc edge) | +++ ((+++) for growth retardation greater than 3 mm from disc edge) |  |  |  |  |  |
